Measurements published in ChEMBL document CHEMBL5665443, “Enzyme Inhibitor Single Concentration assay results for EUbOPEN Chemogenomics Library” (2024).
Where a SMILES comes first, the peptide text is derived from it. [ ]: non-standard residue; d: D form. Arg(Me) = CNC(=N)NCCC[C@H](N)C(=O)O; d3Pal = N[C@H](Cc1cccnc1)C(=O)O; azaGly = NNC(=O)O

How the values were obtained:
Conditions in all cases: Hit No
[1] = target: Methyl-CpG-binding domain protein 4 (Homo sapiens) (UniProt O95243);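 note: MBD4 activity read as fluorescence at 594 nm from cleavage and release of a quenched duplex DNA oligonucleotide, with APE1 coupled to incise the strand and raise turnover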
Methyl-CpG-binding domain protein 4 (Homo sapiens), sequence (O95243 whole entry, the tested form may be a part): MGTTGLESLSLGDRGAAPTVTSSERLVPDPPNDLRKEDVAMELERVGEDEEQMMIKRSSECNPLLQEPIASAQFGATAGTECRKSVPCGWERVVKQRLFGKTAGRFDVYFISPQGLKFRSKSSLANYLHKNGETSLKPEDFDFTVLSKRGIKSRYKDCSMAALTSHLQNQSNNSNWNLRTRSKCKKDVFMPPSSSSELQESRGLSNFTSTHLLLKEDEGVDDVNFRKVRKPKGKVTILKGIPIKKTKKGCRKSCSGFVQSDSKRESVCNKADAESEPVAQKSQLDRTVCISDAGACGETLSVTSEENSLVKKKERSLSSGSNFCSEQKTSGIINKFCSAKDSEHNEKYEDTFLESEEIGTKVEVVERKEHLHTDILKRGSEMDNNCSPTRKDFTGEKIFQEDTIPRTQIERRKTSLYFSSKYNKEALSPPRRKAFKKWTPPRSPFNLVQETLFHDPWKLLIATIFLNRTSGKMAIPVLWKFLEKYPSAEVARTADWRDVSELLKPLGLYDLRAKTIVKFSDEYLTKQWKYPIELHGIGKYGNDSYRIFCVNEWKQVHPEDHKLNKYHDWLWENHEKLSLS
Description: Inhibition of MBD4 by quantifying inhibition of MBD4-mediated cleavage and dissociation of quenched duplex DNA oligonucleotides, measured as fluorescence at 594 nm. To generate a functional strand incision and increase turn-over this assay is coupled to APE1.

[2] = target: T1, Adenine DNA glycosylase (Homo sapiens) (UniProt Q9UIF7);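 note: human MUTYH activity read as 594 nm fluorescence from cleavage and release of a quenched DNA duplex, coupled with APE1 for strand incision, lower signal meaning inhibition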
T1 sequence (whole entry): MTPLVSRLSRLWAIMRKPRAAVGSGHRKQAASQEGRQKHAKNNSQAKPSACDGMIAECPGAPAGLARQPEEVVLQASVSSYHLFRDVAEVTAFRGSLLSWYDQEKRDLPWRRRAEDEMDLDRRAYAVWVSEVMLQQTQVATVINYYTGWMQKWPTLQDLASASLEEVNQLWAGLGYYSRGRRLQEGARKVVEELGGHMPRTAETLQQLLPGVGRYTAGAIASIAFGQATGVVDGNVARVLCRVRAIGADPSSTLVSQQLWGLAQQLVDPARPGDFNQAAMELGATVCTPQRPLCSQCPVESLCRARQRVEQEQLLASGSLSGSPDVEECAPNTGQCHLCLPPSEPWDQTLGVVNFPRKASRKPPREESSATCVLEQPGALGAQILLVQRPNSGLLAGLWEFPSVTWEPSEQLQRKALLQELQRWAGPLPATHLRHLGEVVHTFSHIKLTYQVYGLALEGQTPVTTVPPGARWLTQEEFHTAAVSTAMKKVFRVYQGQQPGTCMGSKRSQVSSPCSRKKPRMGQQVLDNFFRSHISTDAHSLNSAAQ
Description: Inhibition of MUTYH by quantifying inhibition of MUTYH-mediated cleavage and dissociation of quenched duplex DNA oligonucleotides, measured as fluorescence at 594 nm. To generate a functional strand incision and increase turn-over this assay is coupled to APE1.

[3] = target: Endonuclease 8-like 1 (Homo sapiens) (UniProt Q96FI4);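 note: fluorescence at 594 nm from quenched duplex DNA oligonucleotides released by NEIL1 cleavage and strand separation, reported as reduction of this enzyme activity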
Endonuclease 8-like 1 (Homo sapiens), sequence (Q96FI4 whole entry): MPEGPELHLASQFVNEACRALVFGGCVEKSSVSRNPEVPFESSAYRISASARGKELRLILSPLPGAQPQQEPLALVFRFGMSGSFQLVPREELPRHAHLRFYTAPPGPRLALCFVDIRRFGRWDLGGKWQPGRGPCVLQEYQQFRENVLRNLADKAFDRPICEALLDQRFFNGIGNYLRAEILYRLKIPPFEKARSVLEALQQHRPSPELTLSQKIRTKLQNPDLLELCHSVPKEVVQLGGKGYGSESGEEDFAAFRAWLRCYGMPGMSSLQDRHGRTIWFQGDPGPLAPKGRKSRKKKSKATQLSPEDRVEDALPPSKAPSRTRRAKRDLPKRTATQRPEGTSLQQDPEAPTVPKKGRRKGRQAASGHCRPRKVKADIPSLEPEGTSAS
Description: Inhibition of NEIL1 by quantifying inhibition of NEIL1-mediated cleavage and dissociation of quenched duplex DNA oligonucleotides, measured as fluorescence at 594 nm.

[4] = target: T2, Endonuclease 8-like 2 (Homo sapiens) (UniProt Q969S2);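 note: fluorescence at 594 nm reports NEIL2 cutting and release of a quenched double-stranded DNA oligo substrate, reduced signal read as inhibition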
T2 sequence (whole entry): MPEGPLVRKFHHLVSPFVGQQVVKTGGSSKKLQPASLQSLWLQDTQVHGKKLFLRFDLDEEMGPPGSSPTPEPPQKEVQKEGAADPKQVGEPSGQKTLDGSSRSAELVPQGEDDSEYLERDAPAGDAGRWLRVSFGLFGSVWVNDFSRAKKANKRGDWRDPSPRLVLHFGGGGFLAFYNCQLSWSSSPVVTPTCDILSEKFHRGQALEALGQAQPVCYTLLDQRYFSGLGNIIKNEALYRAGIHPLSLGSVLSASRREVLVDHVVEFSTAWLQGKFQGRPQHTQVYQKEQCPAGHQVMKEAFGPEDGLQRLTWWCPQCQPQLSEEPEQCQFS
Description: Inhibition of NEIL2 by quantifying inhibition of NEIL2-mediated cleavage and dissociation of quenched duplex DNA oligonucleotides, measured as fluorescence at 594 nm.

[5] = target: T3, Endonuclease III-like protein 1 (Homo sapiens) (UniProt P78549);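 note: enzyme assay tracking NTHL1 cutting and release of a quenched double-stranded DNA oligo substrate, read as fluorescence at 594 nm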
T3 sequence (whole entry): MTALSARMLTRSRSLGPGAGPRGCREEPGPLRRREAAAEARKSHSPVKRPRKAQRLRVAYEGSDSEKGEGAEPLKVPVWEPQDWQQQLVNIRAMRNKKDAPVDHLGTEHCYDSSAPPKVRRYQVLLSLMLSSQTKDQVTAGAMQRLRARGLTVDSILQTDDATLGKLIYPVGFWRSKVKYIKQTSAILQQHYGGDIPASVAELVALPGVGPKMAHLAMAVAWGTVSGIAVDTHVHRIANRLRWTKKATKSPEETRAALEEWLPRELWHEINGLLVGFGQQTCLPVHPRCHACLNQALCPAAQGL
Description: Inhibition of NTHL1 by quantifying inhibition of NTHL1-mediated cleavage and dissociation of quenched duplex DNA oligonucleotides, measured as fluorescence at 594 nm.

[6] = target: N-glycosylase/DNA lyase (Homo sapiens) (UniProt O15527);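 note: OGG1 cleavage of a quenched duplex DNA oligonucleotide, coupled to APE1 for strand incision, read as fluorescence at 594 nm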
N-glycosylase/DNA lyase (Homo sapiens), sequence (O15527 whole entry): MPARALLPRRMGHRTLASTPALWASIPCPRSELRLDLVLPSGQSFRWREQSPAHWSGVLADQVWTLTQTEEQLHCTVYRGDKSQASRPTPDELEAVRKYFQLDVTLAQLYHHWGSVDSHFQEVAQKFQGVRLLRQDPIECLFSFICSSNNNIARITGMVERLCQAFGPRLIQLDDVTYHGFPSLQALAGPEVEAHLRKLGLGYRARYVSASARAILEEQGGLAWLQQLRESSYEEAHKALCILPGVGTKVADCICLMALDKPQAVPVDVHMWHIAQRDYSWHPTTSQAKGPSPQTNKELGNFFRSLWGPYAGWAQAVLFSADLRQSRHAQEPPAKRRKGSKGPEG
Description: Inhibition of OGG1 by quantifying inhibition of OGG1-mediated cleavage and dissociation of quenched duplex DNA oligonucleotides, measured as fluorescence at 594 nm. To generate a functional strand incision and increase turn-over this assay is coupled to APE1.

[7] = target: T4, Single-strand selective monofunctional uracil DNA glycosylase (Homo sapiens) (UniProt Q53HV7);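 note: enzymatic SMUG1 assay coupled with APE1, reading fluorescence at 594 nm released when a quenched double-stranded DNA oligonucleotide substrate is cleaved and separated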
T4 sequence (whole entry): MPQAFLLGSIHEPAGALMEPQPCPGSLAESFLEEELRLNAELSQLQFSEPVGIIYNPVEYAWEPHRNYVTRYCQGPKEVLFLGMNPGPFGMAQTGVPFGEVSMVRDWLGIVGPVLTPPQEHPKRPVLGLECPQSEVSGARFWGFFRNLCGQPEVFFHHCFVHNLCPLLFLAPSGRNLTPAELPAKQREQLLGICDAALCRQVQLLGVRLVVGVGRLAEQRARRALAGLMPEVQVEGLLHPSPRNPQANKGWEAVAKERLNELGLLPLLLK
Description: Inhibition of SMUG1 by quantifying inhibition of SMUG1-mediated cleavage and dissociation of quenched duplex DNA oligonucleotides, measured as fluorescence at 594 nm. To generate a functional strand incision and increase turn-over this assay is coupled to APE1.

[8] = target: G/T mismatch-specific thymine DNA glycosylase (Homo sapiens) (UniProt Q13569);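 note: human TDG cleavage of quenched duplex DNA oligonucleotides coupled to APE1, strand release read as fluorescence at 594 nm, inhibition of TDG activity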
G/T mismatch-specific thymine DNA glycosylase (Homo sapiens), sequence (Q13569 whole entry): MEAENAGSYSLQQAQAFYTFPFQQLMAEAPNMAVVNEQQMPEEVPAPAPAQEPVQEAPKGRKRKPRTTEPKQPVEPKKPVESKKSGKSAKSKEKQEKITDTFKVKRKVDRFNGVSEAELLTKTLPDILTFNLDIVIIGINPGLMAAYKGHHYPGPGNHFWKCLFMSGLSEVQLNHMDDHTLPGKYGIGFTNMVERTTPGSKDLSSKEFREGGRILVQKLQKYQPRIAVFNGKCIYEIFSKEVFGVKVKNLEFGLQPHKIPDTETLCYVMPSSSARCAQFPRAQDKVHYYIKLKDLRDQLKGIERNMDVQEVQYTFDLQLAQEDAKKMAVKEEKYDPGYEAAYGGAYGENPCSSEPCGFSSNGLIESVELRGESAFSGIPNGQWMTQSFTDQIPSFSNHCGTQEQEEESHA
Description: Inhibition of TDG by quantifying inhibition of TDG-mediated cleavage and dissociation of quenched duplex DNA oligonucleotides, measured as fluorescence at 594 nm. To generate a functional strand incision and increase turn-over this assay is coupled to APE1.

[9] = target: Uracil-DNA glycosylase (Homo sapiens) (UniProt P13051);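 note: UNG excision on a quenched double-stranded DNA oligo probe, with APE1 added for strand incision and turnover, read as fluorescence at 594 nm as strands separate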
Uracil-DNA glycosylase (Homo sapiens), sequence (P13051 whole entry): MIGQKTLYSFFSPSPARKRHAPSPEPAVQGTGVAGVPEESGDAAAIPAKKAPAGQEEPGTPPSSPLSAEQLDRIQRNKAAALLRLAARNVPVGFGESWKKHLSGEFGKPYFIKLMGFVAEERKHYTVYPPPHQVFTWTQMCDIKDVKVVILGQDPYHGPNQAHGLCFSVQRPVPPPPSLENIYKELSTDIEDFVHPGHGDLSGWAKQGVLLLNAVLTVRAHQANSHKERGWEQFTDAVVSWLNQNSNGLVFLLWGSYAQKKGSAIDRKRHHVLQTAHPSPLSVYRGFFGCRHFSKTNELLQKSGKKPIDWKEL
Description: Inhibition of UNG by quantifying inhibition of UNG-mediated cleavage and dissociation of quenched duplex DNA oligonucleotides, measured as fluorescence at 594 nm. To generate a functional strand incision and increase turn-over this assay is coupled to APE1.

| Compound | inhibition ([1]; Compound Concentration 1.0 uM) [%] | inhibition ([2]; Compound Concentration 1.0 uM) [%] | inhibition ([3]; Compound Concentration 1.0 uM) [%] | inhibition ([4]; Compound Concentration 1.0 uM) [%] | inhibition ([5]; Compound Concentration 1.0 uM) [%] | inhibition ([6]; Compound Concentration 1.0 uM) [%] | inhibition ([7]; Compound Concentration 1.0 uM) [%] | inhibition ([8]; Compound Concentration 1.0 uM) [%] | inhibition ([9]; Compound Concentration 1.0 uM) [%] | inhibition ([1]; Compound Concentration 10.0 uM) [%] | inhibition ([2]; Compound Concentration 10.0 uM) [%] | inhibition ([3]; Compound Concentration 10.0 uM) [%] | inhibition ([4]; Compound Concentration 10.0 uM) [%] | inhibition ([5]; Compound Concentration 10.0 uM) [%] | inhibition ([6]; Compound Concentration 10.0 uM) [%] | inhibition ([7]; Compound Concentration 10.0 uM) [%] | inhibition ([8]; Compound Concentration 10.0 uM) [%] | inhibition ([9]; Compound Concentration 10.0 uM) [%] |
| --- | --- | --- | --- | --- | --- | --- | --- | --- | --- | --- | --- | --- | --- | --- | --- | --- | --- | --- |
| CN(C)C(=O)Cn1cc(-c2ccc(-c3cncc4ccccc34)cc2)cn1 | 30 | 5.04 | -4.09 | -1.92 | -6.19 | -1.89 | 16.6 | 40.2 | 0.741 |  |  |  |  |  |  |  |  |  |
| CCC[C@@H]1CNCc2c1[nH]c(=O)c(C#N)c2N1CCC2(CC1)CC2 |  |  |  |  |  |  |  |  |  | 65.3 | 7.93 | -1.35 | -5.59 | -9.18 | 27.9 | 17.4 | 98.8 | 2.58 |
| O=C(O)c1cc(F)c2nc(N3[C@@H]4CC[C@H]3C[C@@H](OCc3c(-c5ccccc5OC(F)(F)F)noc3C3CC3)C4)sc2c1 |  |  |  |  |  |  |  |  |  | 61.7 | 11.9 | -9.38 | -1.76 | 10.6 | 67.8 | 17.7 | 99.3 | 4.52 |
| COCCc1ccc(-c2c(C)nc3c(N4CCOCC4)ccnn23)cn1 |  |  |  |  |  |  |  |  |  | 79.3 | 3.45 | -9.68 | 0.531 | -3.26 | 9.87 | 17.6 | 47.5 | 6.75 |
| CCOP(=O)(OCC)C(=Cc1cc(C(C)(C)C)c(O)c(C(C)(C)C)c1)P(=O)(OCC)OCC |  |  |  |  |  |  |  |  |  | 49.5 | 14.5 | -3.17 | 11.2 | 12.5 | -1.84 | 3.52 | 58.6 | -4.58 |
| CNC(=N)NCCC[C@H](NC(=O)[C@H](CC(C)C)NC(=O)NNC(=O)[C@H](Cc1ccccc1)NC(=O)[C@H](CO)NC(=O)[C@H](CC(N)=O)NC(=O)[C@@H](Cc1cccnc1)NC(=O)[C@H](N)Cc1ccc(O)cc1)C(=O)NCC(N)=O (H-[dY][d3Pal]NSF[azaGly]L[Arg(Me)]G-NH2) |  |  |  |  |  |  |  |  |  | 60.6 | -0.706 | -0.139 | -2.53 | 0.685 | 9.57 | 25.5 | 62.4 | 7.1 |
| CCCCCNC(=O)N1CCC(CN(Cc2ccc(Cl)cc2)Cc2ccc([N+](=O)[O-])s2)C1 (stereo not given) |  |  |  |  |  |  |  |  |  | 57.7 | -5.57 | -3.17 | -1.51 | 1.34 | 13.5 | 13.7 | 98.5 | 9.26 |
| CN(C)[C@@H]1CCN(c2cc(-c3ccccc3)nc3ccnn23)C1 |  |  |  |  |  |  |  |  |  | 79.8 | 10.5 | 4.86 | 22.2 | -6.55 | 7.46 | 16.1 | 46.8 | 7.63 |
| Cc1c(N2CCNCC2)nc2ccc(Br)cc2c1C(=O)NC[C@H](CCC(=O)O)c1ccccc1Cl |  |  |  |  |  |  |  |  |  | 54.3 | 16.7 | -1.8 | 0.276 | -7.86 | -2.82 | 15 | 41.3 | 3.28 |
| COc1cccc(-c2nccc3c2CN(c2ccccc2)C3=O)c1 | 63.1 | -4.69 | -3.77 | 7.16 | 4.63 | 5.54 | 17.8 | 45.5 | 3.9 |  |  |  |  |  |  |  |  |  |
| N#CN1CC[C@H](C(=O)Nc2nc3c(s2)CN(C(=O)CN=[N+]=[N-])CC3)C1 |  |  |  |  |  |  |  |  |  | 53.6 | -6.77 | 3.04 | 5.89 | 7.92 | -6.61 | 6.53 | 40.4 | 1.18 |
| CCCCN(CCCC)C(=O)CN1C[C@@H](c2cc(OC)c3c(c2)OCO3)[C@H](C(=O)O)[C@H]1CC(C)(C)CCC |  |  |  |  |  |  |  |  |  | 63.4 | -4.04 | -6.35 | -4.32 | -7.2 | 44.6 | 23.9 | 46 | 4.65 |
| Cc1cn([C@@H](C)CC#N)c(=O)c2cc(Cn3nc(C(F)F)cc3Cl)nn12 |  |  |  |  |  |  |  |  |  | 56.2 | 0.387 | -0.442 | 0.0213 | 5.29 | 9.38 | 19.8 | 99.3 | 2.85 |
| CC1(C)C(=O)C(C)(C)c2cc(C(=O)Nc3ccc(C(=O)O)cc3)ccc21 |  |  |  |  |  |  |  |  |  | 49.5 | -4.47 | -2.26 | -2.53 | -7.2 | 9.87 | 5.8 | 47.5 | -1.52 |
| CC(C)(O)[C@H](F)CN1Cc2cc(NC(=O)c3cnn4cccnc34)c(N3CCOCC3)cc2C1=O |  |  |  |  |  |  |  |  |  | 25.9 | -1.18 | -5.19 | 3.79 | 0.755 | 0.815 | 15.8 | 45.3 | 2.48 |
